From patent US12370235B2, “Synthetic, non-natural antimicrobial peptides inspired by Staphylococcus auricularis delta toxin” (University of Saskatchewan, priority 2021, dated 2025)
Read-outs that look alike come from different tables or passages of the source. Ends that are not written are not given here.

Key:
[1] = system: S. aureus / MRSA (ATCC MP-2 panel); type: cell-based, Staphylococcus aureus
How it was run: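 MIC by broth microdilution in cation-adjusted Mueller Hinton broth: cultures diluted to OD 6×10^−4 and exposed to 2-fold peptide dilution series, standing overnight at 37° C. MIC = lowest peptide concentration with no visible growth. Panel: one methicillin-sensitive S. aureus plus 7 MRSA strains of distinct SCCmec genotypes.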

MRSA ATCC 33592 = assay: DiSC3(5) membrane polarization assay; type: cell-based, Staphylococcus aureus; conditions: 1.56 to 25 μg/mL
Protocol: Membrane disruption and depolarization are commonly reported mechanisms of AMP action. Two indirect assays that rely on fluorescent dyes were employed to assess the interaction of STIP3-29 and D-STIP3-29 with bacterial membranes. First, changes to SYTOX fluorescence was measured when MRSA ATCC 33592 was treated with increasing peptide concentrations ranging from one fourth to four-fold the MIC. […] Next, DiSC3(5), a cationic dye that binds to polarized membranes was used to report on possible depolarization related to AMP treatment. […] Thus, without wishing to be bound by theory, a more conservative explanation of the results is that the cationic peptides increase membrane permeability to SYTOX and that the like-charge of the AMPs to the reporter of polarization may confound the interpretation of the indirect assay. For example, the AMPs may simply displace the self-quenching DiSC3(5) molecules from the membrane surface without causing depolarization.

## TVGGLVKWILKTVKKFA-NH2 [STIP3-29, TVGGLVKWILKTVKKFA-NH2]
[1]
  MIC, MRSA: 6.25 µg/mL
[1]; molar
  MIC, MRSA: 3.3 µM
[1]; relative to STIP3-1, S. aureus / MRSA
  fold improvement of activity (MIC): 16 fold
MRSA ATCC 33592
  DiSC3(5) fluorescence change: dose-dependent increase in fluorescence
